Experimental data reported in patent US4440757A, “Pharmaceutical composition comprising derivative of aminobenzoic acid for regulating prostaglandin” (priority 1978, dated 1984).

Tests used:
[1] = tested on: male Sprague-Dowley rats; assay: Leakage of dye-staff after skin stimulation with histamine and PGE1; assay type: in vivo; conditions: 1000 mg/kg p.o.; with histamine + PGE1
Description: To the three groups of male Sprague-Dowley rats of the total six groups, the respective present substances (Specimens Nos. 4, 7 and 8) were forcibly administered by oral route at the rate of 1000 mg/kg, the other three groups being administered nothing at this time. After 60 min of the administration, a mixture of PGE1 (2.5×10^-11 mol/animal) and histamine (2×10^-8 mol/animal) was intracutaneously injected under light […] into the shaved skin of an abdominal part of four groups of the rats including three groups administered with the present substance.

[2] = tested on: Ehrlich cancer; assay: Cancer proliferation and PGE in the cancer cells (Ehrlich); assay type: in vivo, C57BL/6 mouse; conditions: 100 mg/kg i.p. every other day, 14th day; for Weight of cancer: control 1.30; for Content of PGE in the cancer: control 1.77
Description: Following the same method as in Example 12, the anti-cancer action against transplanted Ehrlich cancer in C57BL/6 mouse, and the amount of PGE in the cancer cells in proliferation in the living body of the mouse were examined in the cases where each one compound of the present invention, Specimens Nos. 1, 2, 3, 4, 5, 6, 8, 9, 10 and 11 was intraperitoneally administered every other day from the next day of the transplantation in total 6 times at a dosage of 100 mg/kg.
The results of determination of the weight of cancer extirpated from the sacrificed mouse on 14th day of the transplantation of the cancer cells, 1×10^6 in number per animal, and content of PGE of the extirpated cancer are shown in the following Table 13: […]

[3] = tested on: cervical aorta of an SD rat, PGI2; assay: PGI2 production by cuttings of cervical aorta; assay type: cell-based; conditions: 50 microliters of 2% solution into 500 microliters, 10 min
Description: After extirpating the cervical aorta of an SD rat under anesthsia, it was washed with Krebs-Linger bicarbonate buffer solution and cut into thin rings, and the cutings were kept in the above-mentioned buffer solution at a rate of 1 mg of wet cuttings per 0.5 ml to produce PGI2.
Into 500 microliters of the thus prepared mixture, 50 micro-liters of an aqueous physiological saline solution containing 2% by weight of the present substance (each of Specimens Nos. 4, 7 and 8) dissolved therein were added and, since the production of PGI2 generally attains to its maximum after 10 min of keeping, a supernatant liquid (2.5 μl) of the mixture was prepared after 10 min of the addition, and then the amount of PGI2 in the supernatant liquid was determined by using the action of suppression of aggregation of the platelets as an index and using ADP as the agglutinating agent, only an aqueous physiological solution being used as control.

[4] = tested on: washed platelets, malondialdehyde; assay: Level of malondialdehyde (MDA) of platelets; assay type: cell-based, human; conditions: Ca ionophore A-23187, 5 min, 37° C.
Description: PRP collected from human blood was centrifugated and washed to be "washed platelets". After adding one of the present substances (Specimens Nos. 4, 7 and 8) to the washed platelets, Caionophore A-23187 was further added to them and the mixture was incubated for 5 minutes at 37° C. Then, thiobarbituric acid was added to the incubated mixture, as a colour developer, and the mixture was extracted with a solvent mixture of methanol and butanol. The absorption at 535 nm was colorimetrically read to determine the amount of malondialdehyde (MDA). […] From this fact also, the participation of the present substance in the metabolism of PGs is presumable.

[5] = tested on: thoracic aorta, PGI2; assay: PGI2 production in arterial tissue of diabetic rats; assay type: in vivo, male Sprague-Dowley rats; conditions: 100 mg/kg p.o., diabetic rat; not administered 0.07, normal 0.26
Description: Groups of male Sprague-Dowley rats of body weight of about 200 g are used for the present experiments. Some groups of the rats were intravenously administered with streptozotocin at 80 mg/kg one to three months in advance of the beginning of the present experiment to be in a state of diabetes mellitus. Those rats of the same strain, the same sex and the same age without being administered with streptozotocin were used as control.
The present substances (Specimens Nos. 4, 7 and 8) were respectively administered to the groups of rats suffering from the artificial diabetes mellitus forcibly by oral route at a rate of 100 mg/kg as an aqueous solution in distilled water.
In the next place, the amount of prostaglandin I2 produced in the arterial tissue was measured as follows:
Thoracic aorta of the rat was rapidly extirpated, washed with Krebs' buffer solution at a temperature of 4° C. and cut into thin rings of 1 to 2 mg in weight. Then, into 200 microliters of Krebs' buffer solution, 60 mg of the thus cut aorta were added and the mixture was incubated for 3 min at 22° C.
The amount of prostaglandin I2 (PGI2) produced by the cut aorta was determined on the supernatant liquid (1 to 10 microliters) of the above-mentioned incubated culture in the same manner as in Example 2 using the suppressing action of platelet aggregation as an index, however, using adenosine diphosphate as the agglutinating agent. After preparing a standard calibration curve using an authentic specimen of PGI2, the content of PGI2 of the above-mentioned supernatant liquid was obtained from the standard curve in ng/mg of wet weight of the arterial tissue.

[6] = Acute oral toxicity (Litchfield-Wilcoxon); conditions: in vivo, mouse, 7 days
Description: The acute oral toxicity of the present substances were examined by using groups of ICR-JCL mouse and orally administering each of the representatives of present substances forcibly as an aqueous solution in distilled water or as an aqueous suspension also in distilled water at predetermined dosages, respectively. After observing the toxicological symptoms, if any, for 6 days, and recording the mortality until 7th day of the administration, LD50 (acute oral) was calculated by the method of Litchfield-Wilcoxon, and autopsy was carried out on dead mice and live mice to obtain informations.

[7] = tested on: male Donryu rats; assay: Stress ulcer of the stomach and 6-keto PGF1α; assay type: in vivo; conditions: 1 g/kg p.o.; for Ulcer-coefficient: 7 hours stress, control 100; for Amount of 6-keto PGF1α: plasma, control 3.3
Description: Three groups of male Donryu rats of body weight of 220 to 250 g after 23.5 hours of fasting were administered orally with the present substance (each of Specimen Nos. 4, 7 and 8) at a rate of one gram/kg dissolved in 8 ml (per 200 g body weight) of an aqueous physiological saline solution.
These three groups of rats and another group of rats equally fasted for 23.5 hours and then administered with only the aqueous physiological saline solution were put into the stresscage, and soaked in water at a temperature of 23° C. to the depth of their breast to load the stress on the rats.
After 7 hours of soaking, the rats were pulled out from water and were immediately sacrificed to collect the whole blood, and their stomachs were extirpated. The plasma fraction prepared from the blood was extracted with ether and the etherextract was separated by thin layer chromatography. The separated extract, after converted to the respective methyloximesilyl derivatives, was subjected to gaschromatography-mass spectorography to determine the content of 6-keto PGF1α.
An aqueous 1% solution of formaldehyde was injected into the extirpated stomach and after 10 min of injection, the stomach was cut to be opened at the greater curvature side to examine the mucous membrane of the gastric body. The longer span of each erosion in the mucous membrane of a rat, if any, was measured microscopically, and its sum expressed by millimeter was taken as an ulcer coefficient of the rat.

Structure (SMILES) | Absorbance at 620 nm (dye leakage) [1] | Weight of cancer [2] | Content of PGE in the cancer [2] | production of PGI2 by cuttings of cervical aorta (FIG. 15) [3] | production of malondialdehyde (MDA) (FIG. 8) [4] | PGI2 [5] | LD50 at 168 h [6] | Ulcer-coefficient [7] | Amount of 6-keto PGF1α [7]
O=C(O)c1ccc(NC2OC[C@@H](O)[C@H](O)[C@H]2O)cc1 (stereo partly drawn) [Specimen No. 7, Sodium p-aminobenzoate-N--D-xyloside] | 0.152 | 0.75 g | 3.98 ng/g | raised the production of PGI2 | suppressed the production of MDA | 0.22 ± 0.02 ng/mg wet tissue | 11800 mg/kg | 58% | 3.9 ng/mL
C[C@@H]1OC(Nc2ccc(C(=O)O)cc2)[C@H](O)[C@H](O)[C@H]1O (stereo partly drawn) [Specimen No. 8, Sodium p-aminobenzoate-N--L-rhamnoside] | 0.162 | 0.72 g | 4.03 ng/g | raised the production of PGI2 | suppressed the production of MDA | 0.18 ± 0.04 ng/mg wet tissue | 12800 mg/kg | 55% | 3.6 ng/mL
O=C(O)c1ccc(NC2O[C@H](CO)[C@@H](O)[C@H](O)[C@@H]2O)cc1 (stereo partly drawn) [Specimen No. 4, Sodium p-aminobenzoate-N--D-mannoside] | 0.155 | 0.56 g | 4.19 ng/g | raised the production of PGI2 | suppressed the production of MDA | 0.19 ± 0.04 ng/mg wet tissue | > 10000 mg/kg | 62% | 3.8 ng/mL
